# Assay results taken from the SangsterLogP compilation.
# Experiment: method code SF-AS, from DOI: 10.1002/ardp.19893220504, PMID: 2569302
# Conditions: pH 7.4
row,Structure (SMILES),logD
1,COc1ccc2c(=O)c(C)c(-c3ccc(Cl)cc3)oc2c1CN1CCCCC1,3.46
2,COc1ccc2c(=O)c(C)c(-c3ccc(F)cc3)oc2c1CN1CCCCC1,2.71
3,COc1ccc2c(=O)c(C)c(-c3ccc([N+](=O)[O-])cc3)oc2c1CN1CCCC1,1.83
4,CCN(CC)Cc1c(OC)ccc2c(=O)c(C)c(-c3ccccc3)oc12,1.99
5,COc1ccc2c(=O)c(C)c(-c3ccc(F)cc3)oc2c1CN1CCOCC1,3.26
6,COc1ccc2c(=O)c(C)c(-c3ccc(C)cc3)oc2c1CN(C)C,2.41
7,COc1ccc2c(=O)c(C)c(-c3ccc(Cl)cc3)oc2c1CN(C)C,2.62
8,COc1ccc2c(=O)c(C)c(-c3ccc([N+](=O)[O-])cc3)oc2c1CN1CCOCC1,3.02
9,COc1ccc2c(=O)c(C)c(-c3ccc(F)cc3)oc2c1CN(C)C,1.97
10,COc1ccc2c(=O)c(C)c(-c3ccc([N+](=O)[O-])cc3)oc2c1CN(C)C,1.73
11,COc1ccc2c(=O)c(C)c(-c3ccc(C)cc3)oc2c1CN1CCCCC1,3.13
12,CCN(CC)Cc1c(OC)ccc2c(=O)c(C)c(-c3ccc(Cl)cc3)oc12,2.66
13,COc1ccc2c(=O)c(C)c(-c3ccc(Cl)cc3)oc2c1CN1CCOCC1,3.94
14,COc1ccc2c(=O)c(C)c(-c3ccc(C)cc3)oc2c1CN1CCOCC1,3.71
15,CCN(CC)Cc1c(OC)ccc2c(=O)c(C)c(-c3ccc(C)cc3)oc12,2.46
16,COc1ccc2c(=O)c(C)c(-c3ccc(C)cc3)oc2c1CN1CCCC1,2.5
17,COc1ccc2c(=O)c(C)c(-c3ccccc3)oc2c1CN(C)C,1.93
18,CCN(CC)Cc1c(OC)ccc2c(=O)c(C)c(-c3ccc([N+](=O)[O-])cc3)oc12,1.7
19,COc1ccc2c(=O)c(C)c(-c3ccc([N+](=O)[O-])cc3)oc2c1CN1CCCCC1,2.53
20,CCN(CC)Cc1c(OC)ccc2c(=O)c(C)c(-c3ccc(F)cc3)oc12,1.99
21,COc1ccc2c(=O)c(C)c(-c3ccc(F)cc3)oc2c1CN1CCCC1,2.13
22,COc1ccc2c(=O)c(C)c(-c3ccc(Cl)cc3)oc2c1CN1CCCC1,2.75
23,COc1ccc2c(=O)c(C)c(-c3ccccc3)oc2c1CN1CCOCC1,3.25
24,COc1ccc2c(=O)c(C)c(-c3ccccc3)oc2c1CN1CCCCC1,2.63
